Experimental findings from the supplement of paper PMC12137928 are described below.

Where a name gives a salt, the structure may show the parent alone.

This experiment has as its system HCT116. The conditions noted are these: 72 h. The method in brief:
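HCT116 cells went into 1536-well plates at 250 per well. CellTiter-Glo luminescence was expressed relative to vehicle (0%) and positive control (-100%) and then pattern-corrected. Both IC50 and maximal efficacy were taken from four-parameter Hill fits.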

For `CO[C@H]1C[C@H](O[C@H]2[C@H](C)[C@@H](O[C@@H]3O[C@H](C)C[C@H](N(C)C)[C@H]3OC(C)=O)[C@@H](C)C[C@@]3(CO3)C(=O)[C@H](C)[C@@H](OC(C)=O)[C@@H](C)[C@@H](C)OC(=O)[C@@H]2C)O[C@@H](C)[C@@H]1OC(C)=O` [Troleandomycin], the IC50 cell viability is, setting by setting: (ICRF193 0 nM) greater than 45.8 µM; (ICRF193 200 nM) greater than 45.8 µM.

Regarding `CN(CC(=O)N1CCOCC1)Cc1c(Cl)cccc1NC(=O)c1ccccc1` [Fominoben hydrochloride], the IC50 cell viability was greater than 45.8 µM (ICRF193 0 nM) and greater than 45.8 µM (ICRF193 200 nM).

Turning to `CCCCCc1ccc(C)cc1O` [Amylmetacresol], the IC50 cell viability runs as follows: (ICRF193 0 nM) greater than 45.8 µM; (ICRF193 200 nM) greater than 45.8 µM.

In the case of `C[C@@H]1C/C=C/C=C/C=C/C=C/[C@H](O[C@@H]2O[C@H](C)[C@@H](O)[C@H](N)[C@@H]2O)C[C@@H]2O[C@](O)(C[C@@H](O)C[C@H]3O[C@@H]3/C=C/C(=O)O1)C[C@H](O)[C@H]2C(=O)O` [Pimaricin], the IC50 cell viability runs as follows: (ICRF193 0 nM) greater than 45.8 µM; (ICRF193 200 nM) greater than 45.8 µM.

Turning to `CCOc1ccc(NS(=O)(=O)c2ccc(N)cc2)nn1` [Sulfaethoxypyridazine], the IC50 cell viability is, setting by setting: (ICRF193 0 nM) greater than 45.8 µM; (ICRF193 200 nM) greater than 45.8 µM.

For `Nc1ccc(C(=O)Oc2ccccc2)c(O)c1` [Phenyl 4-aminosalicylate], the IC50 cell viability was greater than 45.8 µM (ICRF193 0 nM) and greater than 45.8 µM (ICRF193 200 nM).

In the case of `CCOc1ccc2c3c1O[C@H]1[C@@H](O)C=C[C@H]4[C@@H](C2)N(C)CC[C@@]341` [Ethylmorphine], the IC50 cell viability was greater than 45.8 µM (ICRF193 0 nM) and greater than 45.8 µM (ICRF193 200 nM).

Turning to `CN(C)[C@@H]1C(O)=C(C(N)=O)C(=O)[C@@]2(O)C(O)=C3C(=O)c4c(O)cccc4[C@@](C)(O)[C@H]3C[C@@H]12` [Tetracycline hydrochloride], the IC50 cell viability runs as follows: (ICRF193 0 nM) greater than 45.8 µM; (ICRF193 200 nM) greater than 45.8 µM.

In the case of `CCCNS(=O)(=O)Nc1ncnc(OCCOc2ncc(Br)cn2)c1-c1ccc(Br)cc1` [Macitentan], the IC50 cell viability is greater than 45.8 µM (ICRF193 0 nM) and greater than 45.8 µM (ICRF193 200 nM).

In the case of `Cc1ccc(C(C)OC(=O)C2(C)CCC(C(=O)O)C2(C)C)cc1` (centres undefined) [Tocanfil], the IC50 cell viability by setting is: (ICRF193 0 nM) greater than 45.8 µM; (ICRF193 200 nM) greater than 45.8 µM.

The compound `CC(=O)OCC(=O)Nc1cc(C#N)cc(NC(=O)COC(C)=O)c1Cl` [Acreozast] gave an IC50 cell viability (ICRF193 0 nM) greater than 45.8 µM and an IC50 cell viability (ICRF193 200 nM) greater than 45.8 µM.

For the compound `CCn1c(=O)c2c(nc(/C=C/c3ccc(OC)c(OC)c3)n2C)n(CC)c1=O` [Istradefylline], the IC50 cell viability (ICRF193 0 nM) was greater than 45.8 µM and the IC50 cell viability (ICRF193 200 nM) is greater than 45.8 µM.

`CCN1CCC(=C2c3ccccc3CCc3ccccc32)C1C` (centres undefined) [Piroheptine Hydrochloride] registered an IC50 cell viability (ICRF193 0 nM) greater than 45.8 µM and an IC50 cell viability (ICRF193 200 nM) greater than 45.8 µM.

Turning to `CCCN1CCCC[C@H]1C(=O)Nc1c(C)cccc1C` [Ropivacaine hydrochloride], the IC50 cell viability (ICRF193 0 nM) is greater than 45.8 µM and the IC50 cell viability (ICRF193 200 nM) was greater than 45.8 µM.

With `N[C@H](Cc1c[nH]cn1)C(=O)O` [D-HISTIDINE], the IC50 cell viability reads like this: (ICRF193 0 nM) greater than 45.8 µM; (ICRF193 200 nM) greater than 45.8 µM.

`NC(=O)OCC(COC(N)=O)c1ccccc1` [Felbamate]: the IC50 cell viability reads like this: (ICRF193 0 nM) greater than 45.8 µM; (ICRF193 200 nM) greater than 45.8 µM.

Turning to `COc1cc2c(cc1OC)C13CC[N+]4([O-])CC5=CCOC6CC(=O)N2C1C6C5CC34` (centres undefined) [Brucine-N-oxide], the IC50 cell viability reads like this: (ICRF193 0 nM) greater than 45.8 µM; (ICRF193 200 nM) greater than 45.8 µM.

With `CC[C@]1(O)CC[C@H]2[C@@H]3CCC4=CCCC[C@@H]4[C@H]3CC[C@@]21C` [Ethylestrenol], the IC50 cell viability by setting is: (ICRF193 0 nM) greater than 45.8 µM; (ICRF193 200 nM) greater than 45.8 µM.

On to `CCOC(=O)C(C)(C)Oc1ccc(Cl)cc1` [Clofibrate], for which the IC50 cell viability is greater than 45.8 µM (ICRF193 0 nM) and greater than 45.8 µM (ICRF193 200 nM).

On to `CN(C)CCN(Cc1cccs1)c1ccccn1` [Methapyrilene hydrochloride], for which the IC50 cell viability by setting is: (ICRF193 0 nM) greater than 45.8 µM; (ICRF193 200 nM) greater than 45.8 µM.

For the compound `Cc1c(N(C)CS(=O)(=O)O)c(=O)n(-c2ccccc2)n1C` [Dipyrone], the IC50 cell viability (ICRF193 0 nM) was greater than 45.8 µM and the IC50 cell viability (ICRF193 200 nM) was greater than 45.8 µM.

As to `C=CCN1C[C@H](C(=O)N(CCCN(C)C)C(=O)NCC)C[C@@H]2c3cccc4[nH]cc(c34)C[C@H]21` [Cabergoline], the IC50 cell viability was greater than 45.8 µM (ICRF193 0 nM) and greater than 45.8 µM (ICRF193 200 nM).

The compound `Cc1[nH]cnc1CN1CCc2c(c3ccccc3n2C)C1=O` [Alosetron hydrochloride] gave an IC50 cell viability (ICRF193 0 nM) greater than 45.8 µM and an IC50 cell viability (ICRF193 200 nM) greater than 45.8 µM.

On to `Nc1ccccc1C(=O)OCC(O)CO` (centres undefined) [Glyceryl 1-(2-aminobenzoate)], for which the IC50 cell viability is, setting by setting: (ICRF193 0 nM) greater than 45.8 µM; (ICRF193 200 nM) greater than 45.8 µM.

For `CNC[C@H](O)c1cccc(O)c1` [Phenylephrine hydrochloride], the IC50 cell viability by setting is: (ICRF193 0 nM) greater than 45.8 µM; (ICRF193 200 nM) greater than 45.8 µM.

Consider `O=C(OCC1(COC(=O)c2cccnc2)CCCC(COC(=O)c2cccnc2)(COC(=O)c2cccnc2)C1O)c1cccnc1` [Nicomolol], for which the IC50 cell viability runs as follows: (ICRF193 0 nM) greater than 45.8 µM; (ICRF193 200 nM) greater than 45.8 µM.

For `CCN[C@H]1C[C@H](C)S(=O)(=O)c2sc(S(N)(=O)=O)cc21` [Dorzolamide hydrochloride], the IC50 cell viability is greater than 45.8 µM (ICRF193 0 nM) and greater than 45.8 µM (ICRF193 200 nM).

In the case of `C#C[C@]1(O)CC[C@H]2[C@@H]3CCC4=CCCC[C@@H]4[C@H]3CC[C@@]21C` [Lynestrenol], the IC50 cell viability is, setting by setting: (ICRF193 0 nM) greater than 45.8 µM; (ICRF193 200 nM) greater than 45.8 µM.

`COc1cc(NS(=O)(=O)c2ccc(N)cc2)nc(OC)n1` [Sulfadimethoxine]: the IC50 cell viability was greater than 45.8 µM (ICRF193 0 nM) and greater than 45.8 µM (ICRF193 200 nM).

Regarding `CN1CCN(C2=Nc3ccccc3Sc3ccc(Cl)cc32)CC1` [Clothiapine], the IC50 cell viability (ICRF193 0 nM) was greater than 45.8 µM and the IC50 cell viability (ICRF193 200 nM) was greater than 45.8 µM.

`CCOC(=O)NNc1nncc2ccccc12` [Todralazine hydrochloride]: the IC50 cell viability is greater than 45.8 µM (ICRF193 0 nM) and greater than 45.8 µM (ICRF193 200 nM).

For `C/C(=C(\CCOC(=O)c1ccccc1)SS/C(CCOC(=O)c1ccccc1)=C(/C)N(C=O)Cc1cnc(C)nc1N)N(C=O)Cc1cnc(C)nc1N` [Bisbentiamine], the IC50 cell viability is, setting by setting: (ICRF193 0 nM) greater than 45.8 µM; (ICRF193 200 nM) greater than 45.8 µM.

Turning to `CCN(C)C(=O)Oc1cccc([C@H](C)N(C)C)c1` [Rivastigmine tartrate], the IC50 cell viability reads like this: (ICRF193 0 nM) greater than 45.8 µM; (ICRF193 200 nM) greater than 45.8 µM.

Compound `NS(=O)(=O)c1cc(C(=O)O)cc(N2CCCC2)c1Oc1ccccc1` [Piretanide] gave an IC50 cell viability (ICRF193 0 nM) greater than 45.8 µM and an IC50 cell viability (ICRF193 200 nM) greater than 45.8 µM.

In the case of `Cc1nnc2n1-c1sc(CCC(=O)N3CCOCC3)cc1C(c1ccccc1Cl)=NC2` [Apafant], the IC50 cell viability reads like this: (ICRF193 0 nM) greater than 45.8 µM; (ICRF193 200 nM) greater than 45.8 µM.

With `COC(=O)CCCCC(CCSS/C(CCO)=C(/C)N(C=O)Cc1cnc(C)nc1N)SC(C)=O` (centres undefined) [Octotiamine], the IC50 cell viability reads like this: (ICRF193 0 nM) greater than 45.8 µM; (ICRF193 200 nM) greater than 45.8 µM.

Consider `C[C@@H](O)[C@H]1C(=O)N2C(C(=O)OCOC(=O)C(C)(C)C)=C(SC3CN(C4=NCCS4)C3)[C@H](C)[C@H]12` [Tebipenem pivoxil], for which the IC50 cell viability is, setting by setting: (ICRF193 0 nM) greater than 45.8 µM; (ICRF193 200 nM) greater than 45.8 µM.

For the compound `CCCCN1C[C@H](O)[C@@H](O)[C@H](O)[C@H]1CO` [Miglustat], the IC50 cell viability was greater than 45.8 µM (ICRF193 0 nM) and greater than 45.8 µM (ICRF193 200 nM).

As for `CN(C)C(=O)N[C@H]1CC[C@H](CCN2CCN(c3cccc(Cl)c3Cl)CC2)CC1` [Cariprazine], the IC50 cell viability was greater than 45.8 µM (ICRF193 0 nM) and greater than 45.8 µM (ICRF193 200 nM).

In the case of `C[N+]1(CC2COC(c3ccccc3)(C3CCCCC3)O2)CCCCC1` (centres undefined) [Oxapium iodide], the IC50 cell viability reads like this: (ICRF193 0 nM) greater than 45.8 µM; (ICRF193 200 nM) greater than 45.8 µM.

As for `CCOC(=O)[C@H](CCc1ccccc1)N[C@@H](C)C(=O)N1Cc2ccccc2C[C@H]1C(=O)O` [Quinapril hydrochloride], the IC50 cell viability is greater than 45.8 µM (ICRF193 0 nM) and greater than 45.8 µM (ICRF193 200 nM).

Consider `O=C(Oc1ccccc1)c1ccccc1O` [Phenyl salicylate], for which the IC50 cell viability by setting is: (ICRF193 0 nM) greater than 45.8 µM; (ICRF193 200 nM) greater than 45.8 µM.

On to `CC(C)(C)NCC(O)CSc1nc(-c2ccc(C(N)=O)s2)cs1` (centres undefined) [Arotinolol hydrochloride], for which the IC50 cell viability is greater than 45.8 µM (ICRF193 0 nM) and greater than 45.8 µM (ICRF193 200 nM).

Turning to `C[n+]1ccccc1/C=N/O` [Pralidoxime chloride], the IC50 cell viability reads like this: (ICRF193 0 nM) greater than 45.8 µM; (ICRF193 200 nM) greater than 45.8 µM.

The compound `C#CC(C)(CC)OC(=O)c1ccccc1C(=O)O` (centres undefined) [Phthalofyne] registered an IC50 cell viability (ICRF193 0 nM) greater than 45.8 µM and an IC50 cell viability (ICRF193 200 nM) greater than 45.8 µM.

Turning to `O=c1c2c(c1=O)N(CCP(=O)(O)O)CCCN2` [EAA-090], the IC50 cell viability was greater than 45.8 µM (ICRF193 0 nM) and greater than 45.8 µM (ICRF193 200 nM).

On to `Cc1cn[nH]c1` [Fomepizole], for which the IC50 cell viability reads like this: (ICRF193 0 nM) greater than 45.8 µM; (ICRF193 200 nM) greater than 45.8 µM.

For `COc1ccc2c(c1)c(CC(=O)OC/C=C(\C)CC/C=C(\C)CCC=C(C)C)c(C)n2C(=O)c1ccc(Cl)cc1` [Indomethacin farnesil], the IC50 cell viability was greater than 45.8 µM (ICRF193 0 nM) and greater than 45.8 µM (ICRF193 200 nM).

For the compound `Nc1nc(=O)c2c([nH]1)NCC(CNc1ccc(C(=O)N[C@@H](CCC(=O)O)C(=O)O)cc1)N2C=O` (some centres undefined) [LEUCOVORIN CALCIUM], the IC50 cell viability reads like this: (ICRF193 0 nM) greater than 45.8 µM; (ICRF193 200 nM) greater than 45.8 µM.

Consider `Cc1cccc(N(C)C(=S)Oc2ccc3ccccc3c2)c1` [Tolnaftate], for which the IC50 cell viability is greater than 45.8 µM (ICRF193 0 nM) and greater than 45.8 µM (ICRF193 200 nM).

`N=C(N)NCCCCCCC(=O)NC(O)C(=O)NCCCCNCCCN` (centres undefined) [Gusperimus trihydrochloride]: the IC50 cell viability is greater than 45.8 µM (ICRF193 0 nM) and greater than 45.8 µM (ICRF193 200 nM).

Regarding `CCCCCCCCCCCCCCCC(=O)OCC(=O)[C@@]1(O)[C@H](C)C[C@H]2[C@@H]3CCC4=CC(=O)C=C[C@]4(C)[C@@]3(F)[C@@H](O)C[C@@]21C` [Dexamethasone 21-Palmitate], the IC50 cell viability was greater than 45.8 µM (ICRF193 0 nM) and greater than 45.8 µM (ICRF193 200 nM).
